Columns and labels:
[1] = molecular target: 5-hydroxytryptamine receptor 2A (Rattus norvegicus, UniProt P14842)
[2] = molecular target: T1, 5-hydroxytryptamine receptor 1A (Rattus norvegicus, UniProt P19327)
T1 sequence (P19327 whole entry): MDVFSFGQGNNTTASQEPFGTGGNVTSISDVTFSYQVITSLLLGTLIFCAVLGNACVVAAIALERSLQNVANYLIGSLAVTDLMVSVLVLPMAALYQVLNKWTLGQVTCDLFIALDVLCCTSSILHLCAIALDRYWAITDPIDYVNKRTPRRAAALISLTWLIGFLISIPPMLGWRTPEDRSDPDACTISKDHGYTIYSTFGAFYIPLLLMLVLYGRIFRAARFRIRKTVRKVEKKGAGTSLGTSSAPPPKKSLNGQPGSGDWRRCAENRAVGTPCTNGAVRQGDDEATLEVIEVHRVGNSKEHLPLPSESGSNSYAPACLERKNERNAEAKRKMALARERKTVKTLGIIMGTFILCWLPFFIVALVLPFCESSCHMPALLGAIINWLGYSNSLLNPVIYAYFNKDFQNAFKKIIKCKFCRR

D(2) dopamine receptor = D(2) dopamine receptor (Rattus norvegicus, UniProt P61169)
D(2) dopamine receptor, sequence (P61169 whole entry): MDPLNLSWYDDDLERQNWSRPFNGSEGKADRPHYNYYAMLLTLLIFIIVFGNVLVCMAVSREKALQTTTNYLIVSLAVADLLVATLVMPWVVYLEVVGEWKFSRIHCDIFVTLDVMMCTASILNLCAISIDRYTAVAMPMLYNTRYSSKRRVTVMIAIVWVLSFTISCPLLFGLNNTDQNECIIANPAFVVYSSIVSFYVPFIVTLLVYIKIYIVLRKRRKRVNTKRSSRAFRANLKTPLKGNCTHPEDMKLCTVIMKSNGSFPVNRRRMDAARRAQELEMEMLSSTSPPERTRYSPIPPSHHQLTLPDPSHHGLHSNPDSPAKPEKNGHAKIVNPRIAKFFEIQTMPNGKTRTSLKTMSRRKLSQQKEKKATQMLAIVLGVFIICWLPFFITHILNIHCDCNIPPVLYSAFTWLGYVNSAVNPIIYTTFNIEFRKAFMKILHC

[3] = molecular target: T2, Alpha-1A adrenergic receptor (Rattus norvegicus, UniProt P43140)
T2 sequence (P43140 whole entry): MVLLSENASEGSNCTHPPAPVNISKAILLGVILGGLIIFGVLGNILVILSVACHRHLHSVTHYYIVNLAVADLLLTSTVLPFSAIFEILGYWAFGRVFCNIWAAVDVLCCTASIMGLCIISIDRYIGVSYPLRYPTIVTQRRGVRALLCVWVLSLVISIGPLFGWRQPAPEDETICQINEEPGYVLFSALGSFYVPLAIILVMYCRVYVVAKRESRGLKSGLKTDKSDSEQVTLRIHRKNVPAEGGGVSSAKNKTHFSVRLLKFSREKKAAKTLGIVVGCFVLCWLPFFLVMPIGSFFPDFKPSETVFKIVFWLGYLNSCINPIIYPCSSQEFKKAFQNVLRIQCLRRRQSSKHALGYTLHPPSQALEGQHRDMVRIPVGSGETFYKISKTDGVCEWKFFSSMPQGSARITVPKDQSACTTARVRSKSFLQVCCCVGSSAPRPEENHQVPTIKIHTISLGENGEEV

[4] = molecular target: T3, Alpha-2C adrenergic receptor (Rattus norvegicus, UniProt P22086)
T3 sequence (P22086 whole entry): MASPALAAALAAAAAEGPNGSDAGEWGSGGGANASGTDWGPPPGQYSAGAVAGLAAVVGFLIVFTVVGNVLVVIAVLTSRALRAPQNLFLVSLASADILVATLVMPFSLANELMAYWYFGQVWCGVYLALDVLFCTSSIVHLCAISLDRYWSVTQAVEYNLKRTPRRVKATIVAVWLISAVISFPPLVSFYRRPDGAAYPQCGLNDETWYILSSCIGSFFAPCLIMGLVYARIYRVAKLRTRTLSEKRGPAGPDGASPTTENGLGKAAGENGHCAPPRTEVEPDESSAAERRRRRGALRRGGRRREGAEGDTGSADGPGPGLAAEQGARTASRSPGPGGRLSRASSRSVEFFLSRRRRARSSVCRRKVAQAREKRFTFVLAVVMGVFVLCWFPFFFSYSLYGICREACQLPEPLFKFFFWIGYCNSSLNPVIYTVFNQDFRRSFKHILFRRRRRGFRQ

[5] = molecular target: T4, Muscarinic acetylcholine receptor M2 (Rattus norvegicus, UniProt P10980)
T4 sequence (P10980 whole entry): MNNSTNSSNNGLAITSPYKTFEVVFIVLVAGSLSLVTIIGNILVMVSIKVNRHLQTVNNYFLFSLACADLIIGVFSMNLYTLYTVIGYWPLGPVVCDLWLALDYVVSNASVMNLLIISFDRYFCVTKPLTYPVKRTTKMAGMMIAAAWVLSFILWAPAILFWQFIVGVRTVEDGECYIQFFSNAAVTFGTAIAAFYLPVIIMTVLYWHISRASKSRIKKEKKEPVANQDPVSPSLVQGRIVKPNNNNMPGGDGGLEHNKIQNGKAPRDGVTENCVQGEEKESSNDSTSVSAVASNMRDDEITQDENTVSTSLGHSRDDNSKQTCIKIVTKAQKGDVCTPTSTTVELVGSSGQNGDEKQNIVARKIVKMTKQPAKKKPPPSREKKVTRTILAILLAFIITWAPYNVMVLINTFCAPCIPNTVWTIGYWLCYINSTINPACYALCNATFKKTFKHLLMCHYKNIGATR

5-hydroxytryptamine receptor 2A, sequence (P14842 whole entry): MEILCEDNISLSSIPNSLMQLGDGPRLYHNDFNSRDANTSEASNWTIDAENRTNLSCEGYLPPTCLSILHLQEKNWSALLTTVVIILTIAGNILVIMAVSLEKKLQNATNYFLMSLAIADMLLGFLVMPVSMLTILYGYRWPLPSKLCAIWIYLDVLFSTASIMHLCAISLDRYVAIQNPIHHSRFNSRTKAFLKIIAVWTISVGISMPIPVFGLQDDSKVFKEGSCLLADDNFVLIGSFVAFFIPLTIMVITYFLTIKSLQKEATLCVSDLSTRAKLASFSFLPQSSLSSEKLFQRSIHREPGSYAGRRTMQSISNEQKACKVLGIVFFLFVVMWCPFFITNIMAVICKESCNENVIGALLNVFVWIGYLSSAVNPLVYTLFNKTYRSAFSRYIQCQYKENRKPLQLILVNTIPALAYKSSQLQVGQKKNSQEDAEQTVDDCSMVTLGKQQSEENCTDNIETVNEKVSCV

- Ki [1]: 0.0058 µM
- Ki [2]: 0.134 µM
- Ki (D(2) dopamine receptor): 0.199 µM
- Ki [3]: 0.038 µM
- Ki [4]: 0.181 µM
- Ki [5]: 0.678 µM
SMILES: Fc1ccc(N2CCN(CCC3OCCc4ccccc43)CC2)cc1 (stereo unspecified) [CAS_170856-41-4]

Source: BindingDB's records for PubMed 9103528 (Pharmacia & Upjohn, 1997)
